Source: article PMC9065877, “Safety, tolerability and pharmacokinetics of the oligomer modulator anle138b with exposure levels sufficient for therapeutic efficacy in a murine Parkinson model: A randomised, double-blind, placebo-controlled phase 1a trial” (EBioMedicine, 2022)

How the values were obtained:
[1] = Single ascending dose (SAD) oral pharmacokinetics of anle138b in healthy subjects, plasma; assay type: in vivo, human; conditions: for AUC(0-t) / Cmax: human, plasma, fasted, geometric mean (CV%); for AUC(0-t): read-out: AUC(0-24)
Protocol: This was a single-centre, double-blind, randomised, placebo-controlled single ascending dose (SAD) and multiple ascending dose (MAD) study of anle138b in doses of up to 300 mg per day in healthy subjects. In addition, the effect of food (FES) on the PK of anle138b in healthy subjects was examined using single doses of 150 mg. Participants were recruited from Quotient Sciences (Nottingham, UK) volunteer database.
As a safety precaution, sentinel dosing was performed for all SAD and MAD cohorts. In SAD, subjects received a single dose of anle138b or placebo after fasting from all food and drink (except water) for a minimum of 8 h prior to dosing. The dosing in the four SAD-cohorts were 50 mg, 100 mg, 200 mg and 300 mg of free anle138b equivalent, respectively. In the MAD part, participants received anle138b or placebo once daily (QD) for 7 days after fasting from all food and drink (except water) for a minimum of 8 h prior to dosing. The dosing in the three MAD-cohorts was 100 mg, 200 mg and 300 mg of free anle138b equivalent, respectively. Post dosing mouth and hand checks were conducted to ensure the capsules were swallowed. In-study decisions regarding continuation and dose escalation were made by the safety advisory committee (SAC) comprising the principal investigator, the sponsor's medical monitor and a PK expert. For dose escalation to proceed, data needed to be available from a minimum of 6 subjects per cohort with completed per protocol safety and PK assessments up to 48 h after dosing to ensure at least 4 subjects had received active IMP. The decision to proceed to the next higher dose level was based on safety, tolerability and available PK data to 48 h post-dose. The following data were required: Adverse events, vital signs, safety laboratory, ECG, physical examinations, plasma concentrations of anle138b with interim PK parameter estimations (Tmax, Cmax, AUC(0-24), AUC(0-tau), AUC(0-last) and T½, where applicable). Data were provided to the SAC in accordance with Quotient Sciences’ standard operating procedure (SOP) on interim dose decision-making and dose escalation.
Secondary outcome measures were the oral PK of single (SAD) and multiple (MAD) ascending doses of anle138b in the fasted state as well as the effect of co-administration with food on the PK of anle138b. To this end PK blood samples were taken at day 1 (and for MAD day 7) pre-dose and at 0·5, 1, 1·5, 2, 3, 4, 6, 8, 10, 12, 16 and 20 h post-dose, at days 2 to 6 pre-dose only (MAD) and 24, 30, 36 and 48 h post final dose. Analysis of anle138b in plasma was done at Aptuit, an Evotec company, in Verona, Italy. Time point of last quantifiable data was seen to increase with an increase in dose as follows: SAD: from the 50mg dose (subjects ranged between 8-24h) to the 300mg dose (subjects ranged between 36-48h). MAD: from the 100mg dose (subjects ranged between 8-36h) to the 300mg dose (subjects ranged between 20-48h). In FES, subjects ranged between 24-48h.
The study was exploratory and no formal sample size calculation was made. Based on experience from previous studies of similar design, eight subjects per cohort were enrolled for parts 1 (SAD) and 2 (MAD) and a total of twelve subjects for part 3 (FES). Populations and analysis sets were determined for safety and PK data after database lock using the criteria defined in the reporting and analysis plan. The safety population and safety analysis set for SAD and MAD were defined after database lock but prior to study unblinding. Statistical analysis and production of summary tables, figures and listings for all safety data (AEs, vital signs, ECGs and safety laboratory assessments) including changes from baseline as required in this study were performed using the statistical package SAS (v9·4). Additional statistics was provided for PK-related data including coefficient of variation (CV%), geometric mean, geometric CV%, and the number n of subjects that were included in the natural logarithmic transformation). […]

[2] = 28-day toxicity study in rats; conditions: rat, in vivo; for Cmax: at 50 mg, read-out: Cmax at NOAEL
Excerpt: (§1) This trial followed the recommendations of the EMA (European Medicines Agency) (EMEA/CHMP/SWP/28367/07 Rev. 1; 20 July 2017) and the FDA (Food and Drug Administration) (Guidance for Industry: Estimating the Maximum Safe Starting Dose in Initial Clinical Trials for Therapeutics in Adult Healthy Volunteers. U.S. Department of Health and Human Services Food and Drug Administration Center for Drug Evaluation and Research (CDER) July 2005) for dose finding in a first-in-human study. The safe starting dose was set based on toxicity studies in animals. In a 28-day toxicity study in rats, the no-observed-adverse-effect-level (NOAEL) was determined to be 50 mg/kg/day (human equivalent dose of 8·1 mg/kg using the FDA factor of 6·2 according to the FDA Guidance for Industry “Estimating the Maximum Safe Starting Dose in Initial Clinical Trials for Therapeutics in Adult Healthy Volunteers”). Cmaxǀexposure at 50 mg in males were 2460ǀ25600 and in females 2680ǀ21700 ng/mL ǀ ng*h/mL. In a 28-day cynomolgus monkey toxicity study, the NOAEL was 125 mg/kg/day (human equivalent dose of 40·3 mg/kg). Cmaxǀexposure at 125 mg/kg/day were 3170ǀ15700 (males) and 2720ǀ9720 (females) ng/mL ǀ ng*h/mL. Based upon these NOAELs a safe starting dose derived from the more sensitive species (rat) was calculated using a safety factor of 10 (i.e., 0·8 mg/kg), which corresponds to a dose of approximately 50 mg assuming a body weight of 60 kg. […] Escalation between doses was planned to be flexible depending on emerging results but not to exceed an increment of 2-fold.

[3] = Blood levels of anle138b after chronic dosing (14 days) in food pellets; assay type: in vivo; parameters: dose or concentration left out as unconfirmed; conditions: mouse, oral, doses of ≥11·, read-out: AUC0-24 exposure
Protocol: Based on the analysis of blood levels of anle138b after chronic dosing (14 days) using the same formulation (anle138b in food pellets), doses of ≥11·1 mg/kg/day correspond to an AUC0-24 exposure of ≥ 300 ng*h/ml.

[4] = 28-day cynomolgus monkey toxicity study; conditions: in vivo; for Cmax: 125 mg/kg/day, read-out: Cmax at NOAEL
Excerpt: as §1

[5] = SAD Cohort B 100 mg single oral dose
[6] = SAD Cohort C 200 mg single oral dose
[7] = SAD Cohort D 300 mg single oral dose

Structure (SMILES): Brc1cccc(-c2cc(-c3ccc4c(c3)OCO4)n[nH]2)c1 [anle138b, 3-(1,3-benzodioxol-5-yl)-5-(3-bromophenyl)-1H-pyrazole]
- Time point of last quantifiable data (range of subjects) ([1]; SAD 50mg dose): 8 to 24 h
- Time point of last quantifiable data (range of subjects) ([1]; SAD 300mg dose): 36 to 48 h
- AUC(0-t) ([1]; SAD Cohort A 50 mg single oral dose): 113 ng·h/mL
- Cmax [1, 5]: 156 ng/mL
- AUC(0-t) [1, 5]: 366 ng·h/mL
- Cmax [1, 6]: 458 ng/mL
- AUC(0-t) [1, 6]: 1090 ng·h/mL
- Cmax [1, 7]: 704 ng/mL
- AUC(0-t) [1, 7]: 1650 ng·h/mL
- Achievement of potential therapeutic exposure (based upon nonclinical in vivo models) ([1]; single 100 mg dose): already achieved after single 100 mg dose
- Cmax ([2]; female, females): 2680 ng/mL
- Cmax ([2]; male, males): 2460 ng/mL
- NOAEL at 28 days ([2]; 28-day toxicity study, read-out: no-observed-adverse-effect-level (NOAEL)): 50 mg/kg/day
- AUC(0-t) [3]: ≥ 300 ng·h/mL
- Cmax ([4]; female, females): 2720 ng/mL
- NOAEL at 28 days ([4]; 28-day toxicity study): 125 mg/kg/day
- Cmax ([4]; male, males): 3170 ng/mL
